One experiment concerns Klebsiella oxytoca. Nature of the experiment: Antibiotic sensitivity (MIC) of Klebsiella oxytoca isolated from sputum, Example 2. It is filed as cell-based. As to conditions: for Interps / MIC: Klebsiella oxytoca isolate from experimental sputum sample.
The subject of experiment [1] is S. aureus. As to the kind of experiment: Antibiotic sensitivity (MIC) of S. aureus grown from bone incubated in the transport system, Example 3. As to conditions: for MIC: unit assumed. The format is cell-based, Staphylococcus aureus. The protocol: FIG. 5L illustrates another view of the cultures. […] The sample was incubated for 24 hours at 37 degrees Celsius. […] While not being bound to a specific theory, the native bone may sequester sessile infection in biofilms, especially in relatively devitalized bone associated with vasculopathy. Incubation in mucolytic allows for breakdown of the biofilm and the glycerol broth allows for a nutritive environment to coax these recalcitrant organisms into a cultivable state.

Another experiment deals with Staphylococcus aureus. As to the kind of experiment: Antibiotic sensitivity (MIC) of original blood culture isolate, Example 3. It is filed as cell-based. As to conditions: Rare Colonies Staphylococcus aureus. On the procedure: While not being bound to a specific theory, the native bone may sequester sessile infection in biofilms, especially in relatively devitalized bone associated with vasculopathy. Incubation in mucolytic allows for breakdown of the biofilm and the glycerol broth allows for a nutritive environment to coax these recalcitrant organisms into a cultivable state.

For another experiment, the system named is S. Pneumoniae. As to the kind of experiment: Antibiotic sensitivity pattern (MIC) of S. pneumoniae isolated from sputum, Example 1. It is filed as cell-based, Streptococcus pneumoniae. Particulars: for Interpretation / MIC: S. pneumoniae isolate from experimental sputum sample; for MIC: unit assumed. The source says: FIG. 5E illustrates the mucoid alpha Streptococcus only on the experimental sample is Streptococcus pneumonia. Streptococcus pneumoniae not isolated using standard methods.
The patient had invasive pneumococcal disease as noted by a positive Streptococcus pneumoniae urine antigen result. This sample is most impressive in that the systems and methods described herein allowed isolation of Streptococcus pneumoniae despite the patient being on ceftriaxone for two days at the time of collection. The isolate is sensitive to ceftriaxone according to the sensitivity pattern. S in the Interpretation column of the tables below indicates sensitivity, and R indicates resistance.

In experiment [2] the test system is MRSA. As to the kind of experiment: Antibiotic sensitivity (MIC) of 5/5 sputum culture isolate, Example 4. The format is cell-based, Staphylococcus aureus. Particulars: 5/5 Sputum cx, Positive for MRSA. The text has this:
(§1) FIG. 5M illustrates the use of systems and methods to isolate MRSA in sputum allowing for faster initiation of anti-MRSA therapy and clinical cure. This patient was intubated for hypoxemia and pneumonia. The patient placed on ceftriaxone and azithromycin. The systems and methods allowed identification of MRSA in the patient's sputum.
(§2) The original culture taken on 5/5 (finalized on 5/7) was identical to a subsequent culture taken on 5/14 that only grew MRSA.

The test system of experiment [3] is S. aureus. Nature of the experiment: Antibiotic sensitivity (MIC) of 5/14 sputum culture isolate, Example 4. Particulars: 5/14 Sputum cx. The format is cell-based, Staphylococcus aureus.
Source text: as §2

Experiment [4] deals with MRSA. Nature of the experiment: Clinical course of intubated patient with MRSA in sputum, Example 4. The format is in vivo, human. As to conditions: one patient, MRSA pneumonia, on ventilator.
Source text: as §1
FIG. 5N illustrates the yellow colony in the experimental site is obvious. The patient decompensated clinically to the point of near death until proper MRSA antibiotic therapy was initiated. Hypoxemia worsened and oxygen requirements increased prior to MRSA therapy.

Setting [5] is: 05 S. aureus, bone incubated 24 hours at 37 degrees Celsius.

Converted amounts (≈) assume the structure as drawn.

With `C[C@@H](O)[C@H]1C(=O)N2C(C(=O)O)=C(S[C@@H]3CN[C@H](C(=O)N(C)C)C3)[C@H](C)[C@H]12` [Meropenem], in the experiment on Klebsiella oxytoca, the Interps result is recorded as “S” and the MIC was at most 1 µg/mL.

Consider `CCCCCCCCCC(=O)N[C@@H](Cc1c[nH]c2ccccc12)C(=O)N[C@H](CC(N)=O)C(=O)N[C@@H](CC(=O)O)C(=O)N[C@@H]1C(=O)NCC(=O)N[C@@H](CCCN)C(=O)N[C@@H](CC(=O)O)C(=O)N[C@H](C)C(=O)N[C@@H](CC(=O)O)C(=O)NCC(=O)N[C@H](CO)C(=O)N[C@@H]([C@H](C)CC(=O)O)C(=O)N[C@@H](CC(=O)c2ccccc2N)C(=O)O[C@@H]1C` [Daptomycin], for which, in the experiment with S. aureus [1] (setting [5]), the Interps entry was “S” and 0.5 µg/mL (≈ 0.309 µM) was the least that counted as inhibitory (MIC). In the experiment on Staphylococcus aureus, the Interps result is “S” and the MIC was found to be 0.5 µg/mL (≈ 0.309 µM).

For the compound `CO/N=C(\C(=O)N[C@@H]1C(=O)N2C(C(=O)O)=C(COC(C)=O)CS[C@H]12)c1csc(N)n1` [Cefotaxime], in the experiment on Klebsiella oxytoca, the Interps result was “S” and the MIC is at most 2 µg/mL.

Regarding `CO/N=C(\C(=O)N[C@@H]1C(=O)N2C(C(=O)[O-])=C(C[N+]3(C)CCCC3)CS[C@H]12)c1csc(N)n1` [Cefepime], in the experiment on Klebsiella oxytoca, the Interps entry is recorded as “S” and the MIC was at most 2 µg/mL.

Consider `CO/N=C(\C(=O)N[C@@H]1C(=O)N2C(C(=O)O)=C(CSc3nc(=O)c(=O)[nH]n3C)CS[C@H]12)c1csc(N)n1` [Ceftriaxone], for which, in the experiment with S. Pneumoniae, the “sensitivity of the isolate according to the sensitivity pattern” value was “sensitive”, the Interpretation result was “S” and the MIC was at most 0.25 µg/mL. In the experiment with Klebsiella oxytoca, the “sensitivity of the organism” value is on record as “sensitive”, the Interps result is “S” and the MIC was at most 1 µg/mL.

As to `CO[C@H]1/C=C/O[C@@]2(C)Oc3c(C)c(O)c4c(O)c(c(/C=N/N5CCN(C)CC5)c(O)c4c3C2=O)NC(=O)/C(C)=C\C=C\[C@H](C)[C@H](O)[C@@H](C)[C@@H](O)[C@@H](C)[C@H](OC(C)=O)[C@@H]1C` [Rifampin], the MIC against S. aureus [1] (setting [5]), against MRSA [2] and against S. aureus [3] was at most 1 µg/mL in each case. In addition, the Interps entry with S. aureus [1] (24 h), in the experiment on MRSA [2] and in the experiment with S. aureus [3] was “S” throughout.

As for `Cc1nnc(SCC2=C(C(=O)O)N3C(=O)[C@@H](NC(=O)Cn4cnnn4)[C@H]3SC2)s1` [Cefazolin], the Interps result is given as “S” in the experiment with S. aureus [1] (setting [5]); “R” in the experiment on MRSA [2]; “R” with S. aureus [3]; “S” with Staphylococcus aureus; “R” in the experiment on Klebsiella oxytoca. The MIC in the experiment on S. aureus [1] (setting [5]) is at most 4 µg/mL; against MRSA [2], 8 µg/mL (≈ 17.6 µM); against S. aureus [3] it was 16 µg/mL (≈ 35.2 µM); in the experiment with Staphylococcus aureus it was at most 4 µg/mL; against Klebsiella oxytoca, 8 µg/mL (≈ 17.6 µM).

As for `Cc1onc(-c2ccccc2)c1C(=O)N[C@@H]1C(=O)N2[C@@H]1SC(C)(C)[C@@H]2C(=O)O` [Oxacillin], the MIC against S. aureus [1] (setting [5]) is at most 0.25 µg/mL; in the experiment on MRSA [2] it was over 2 µg/mL; against S. aureus [3], over 2 µg/mL; against Staphylococcus aureus, at most 0.25 µg/mL. Moreover, the Interps entry with S. aureus [1] (24 h) was “S”; with MRSA [2], “R”; with S. aureus [3] it was “R”; with Staphylococcus aureus it was “S”.

Consider Gentamicin, for which the Interps entry in the experiment on S. aureus [1] (setting [5]), in the experiment with MRSA [2], with S. aureus [3], with Staphylococcus aureus and in the experiment with Klebsiella oxytoca was “S” throughout. Moreover, the MIC with S. aureus [1] (setting [5]), in the experiment with MRSA [2], in the experiment with S. aureus [3], in the experiment with Staphylococcus aureus and in the experiment with Klebsiella oxytoca was at most 1 µg/mL throughout.

With `CC(=O)NC[C@H]1CN(c2ccc(N3CCOCC3)c(F)c2)C(=O)O1` [Linezolid], the MIC against S. aureus [1] (setting [5]), in the experiment with MRSA [2], in the experiment with S. aureus [3] and against Staphylococcus aureus was 2 µg/mL (≈ 5.93 µM) in each case. The Interps entry with S. aureus [1] (24 h), in the experiment with MRSA [2], in the experiment with S. aureus [3] and in the experiment with Staphylococcus aureus was “S” each time. In addition, the “clinical outcome of therapy” value in the experiment on MRSA [4] was “allowed the patient to come off the ventilator”.

For the compound `C[C@@H](O)[C@H]1C(=O)N2C(C(=O)O)=C(SCCN=CN)C[C@H]12` [Imipenem], in the experiment with Klebsiella oxytoca, the Interps result is on record as “S” and the MIC was at most 0.5 µg/mL.

For Penicillin, in the experiment on S. Pneumoniae, the Interpretation result is given as “S” and the MIC is at most 0.03 µg/mL.

With `CN(C)[C@@H]1C(O)=C(C(N)=O)C(=O)[C@@]2(O)C(O)=C3C(=O)c4c(O)cccc4[C@@](C)(O)[C@H]3C[C@@H]12` [Tetracycline], the Interps result in the experiment on S. aureus [1] (setting [5]) is on record as “R”; in the experiment on MRSA [2], “S”; in the experiment with S. aureus [3], “S”; in the experiment with Staphylococcus aureus, “R”; in the experiment on Klebsiella oxytoca, “S”. In addition, the figures for the minimal inhibitory concentration (MIC) in the experiment on MRSA [2], in the experiment with S. aureus [3] and against Klebsiella oxytoca were at most 1 µg/mL, at most 1 µg/mL and at most 4 µg/mL, respectively.

In the case of `O=C(O)c1cn(C2CC2)c2cc(N3CCNCC3)c(F)cc2c1=O` [Ciprofloxacin], in the experiment on Klebsiella oxytoca, the Interps entry was “S” and the MIC is at most 1 µg/mL.

Take `CC1(C)S[C@@H]2[C@H](NC(=O)[C@H](N)c3ccccc3)C(=O)N2[C@H]1C(=O)O` [Ampicillin]: in the experiment on Klebsiella oxytoca, the Interps entry is on record as “R” and the MIC was over 16 µg/mL.

Turning to `CO[C@@]1(NC(=O)Cc2cccs2)C(=O)N2C(C(=O)O)=C(COC(N)=O)CS[C@@H]21` [Cefoxitin], in the experiment with Klebsiella oxytoca, the Interps entry is recorded as “S” and the minimal inhibitory concentration (MIC) is at most 8 µg/mL.

For the compound `C[C@H]1COc2c(N3CCN(C)CC3)c(F)cc3c(=O)c(C(=O)O)cn1c23` [Levofloxacin], in the experiment on S. Pneumoniae, the Interpretation result is “S” and the MIC turned out to be 1 µg/mL (≈ 2.77 µM). In addition, in the experiment on Klebsiella oxytoca, the Interps entry is on record as “S” and the MIC is at most 0.25 µg/mL.

In the case of `NC[C@H]1O[C@H](O[C@H]2[C@H](O)[C@@H](O[C@H]3O[C@H](CO)[C@@H](O)[C@H](N)[C@H]3O)[C@H](N)C[C@@H]2N)[C@H](N)C[C@@H]1O` [Tobramycin], in the experiment on Klebsiella oxytoca, the Interps entry is listed as “S” and the MIC is at most 1 µg/mL.

Regarding `CC[C@H]1OC(=O)[C@H](C)[C@@H](O[C@H]2C[C@@](C)(OC)[C@@H](O)[C@H](C)O2)[C@H](C)[C@@H](O[C@@H]2O[C@H](C)C[C@H](N(C)C)[C@H]2O)[C@](C)(O)C[C@@H](C)CN(C)[C@H](C)[C@@H](O)[C@]1(C)O` [azithromycin], in the experiment on S. Pneumoniae (inferred from macrolide resistance), the “macrolide resistance of the isolate” value was “resistant”.

As to `CN[C@H](CC(C)C)C(=O)N[C@H]1C(=O)N[C@@H](CC(N)=O)C(=O)N[C@H]2C(=O)N[C@H]3C(=O)N[C@H](C(=O)N[C@H](C(=O)O)c4cc(O)cc(O)c4-c4cc3ccc4O)[C@H](O)c3ccc(c(Cl)c3)Oc3cc2cc(c3O[C@@H]2O[C@H](CO)[C@@H](O)[C@H](O)[C@H]2O[C@H]2C[C@](C)(N)[C@H](O)[C@H](C)O2)Oc2ccc(cc2Cl)[C@H]1O` [Vancomycin], the Interps result with S. aureus [1] (setting [5]), in the experiment on MRSA [2], with S. aureus [3] and in the experiment with Staphylococcus aureus was “S” throughout. For the same compound, the minimal inhibitory concentration (MIC) against S. aureus [1] (setting [5]) amounted to 1 µg/mL (≈ 0.69 µM); with S. Pneumoniae it was 0.25 µg/mL (≈ 0.173 µM); against MRSA [2], 2 µg/mL (≈ 1.38 µM); in the experiment on S. aureus [3], 2 µg/mL (≈ 1.38 µM); in the experiment with Staphylococcus aureus, 1 µg/mL (≈ 0.69 µM). Moreover, in the experiment with MRSA [4], the “clinical outcome of therapy” value was “allowed the patient to come off the ventilator”. Besides, the Interpretation result with S. Pneumoniae is on record as “S”.

As for `CC[C@H]1OC(=O)[C@H](C)[C@@H](O[C@H]2C[C@@](C)(OC)[C@@H](O)[C@H](C)O2)[C@H](C)[C@@H](O[C@@H]2O[C@H](C)C[C@H](N(C)C)[C@H]2O)[C@](C)(O)C[C@@H](C)C(=O)[C@H](C)[C@@H](O)[C@]1(C)O` [Erythromycin], in the experiment with S. Pneumoniae, the Interpretation result is “R” and the MIC was over 0.5 µg/mL.

In the case of `NCC[C@H](O)C(=O)N[C@@H]1C[C@H](N)[C@@H](O[C@H]2O[C@H](CN)[C@@H](O)[C@H](O)[C@H]2O)[C@H](O)[C@H]1O[C@H]1O[C@H](CO)[C@@H](O)[C@H](N)[C@H]1O` [Amikacin], in the experiment with Klebsiella oxytoca, the Interps entry was “S” and the MIC was at most 16 µg/mL.

For the compound `CCC[C@@H]1C[C@@H](C(=O)N[C@@H]([C@H]2O[C@H](SC)[C@H](O)[C@@H](O)[C@H]2O)[C@H](C)Cl)N(C)C1` [Clindamycin], the Interps result in the experiment on S. aureus [1] (setting [5]) is “S”; in the experiment on MRSA [2], “R”; in the experiment with S. aureus [3], “R”; with Staphylococcus aureus it was “S”. Besides, the MIC with S. aureus [1] (setting [5]) is at most 0.25 µg/mL; against S. Pneumoniae, over 0.5 µg/mL; against MRSA [2], over 4 µg/mL; with S. aureus [3] it was over 4 µg/mL; in the experiment on Staphylococcus aureus, at most 0.25 µg/mL. Also, the Interpretation result with S. Pneumoniae is given as “R”.

As usually defined, the MIC is the lowest concentration found to suppress growth.
